{"source": "patent US9926529B2", "about": "“Derivation of neural stem cells and dopaminergic neurons from human pluripotent stem cells” (International Stem Cell Corporation, priority 2012, dated 2018)", "format_in_all_cases": "cell-based, human", "key": {"hPSC-NSCs [1]": {"system": "hPSC-NSCs", "experiment": "Percentage of TH positive cells produced by chemical treatment", "details": "chemical treatment 2.5 μM for two weeks", "procedure": "The method specifically involved treating both hESC-H9-NSCs (Invitrogen) and hPSC-NSCs with Purmorphamine (2 μM) and FGF8 (100 ng/mL) in NB medium [NeuroBasal medium, 1× GlutaMAX, 1× N2/B27 Supplement (Invitrogen)] for 7 days. After 7 days of Purmorphamine and FGF8 treatment, the NSCs were dissociated with Accutase (Sigma) and plated 20,000 cells/mL into Matrigel coated 96 well plates and treated with small molecule library (Torcris 1120 Biologically Active Compounds) at 2.5 μM final concentration for two weeks (FIG. 6A). Two weeks after treatment with small molecules, all wells were visually observed and scored based on neurite density and dopamine release. For measuring neurite density, cells were fixed with 4% paraformaldehyde and phase contrast images were acquired using Cellavista Cell Imaging System (Roche Applied Science) from randomly selected fields. Neurite density was measured using the Cellavista density software image processing program. Each experimental condition was done in duplicate wells, and at least three independent experiments were conducted to acquire the final results.\nConditioned medium from the top neurite inducers (Table 1) (wells containing the highest density of neurites compare to control 0.1% DMSO treated) were collected and analyzed using a dopamine ELISA assay (Cosmo Bio). Conditioned medium was collected from samples containing 50,000 cells per well and centrifuged at 3000 RPM to remove cell debris. Supernatant was then collected and analyzed for quantitative determination of dopamine using a commercial dopamine ELISA assay kit (CusaCosmo Bio). Data analysis was performed using the microtiter plate reader (BIO-TEK Synergy 2). The results presented are from three independent experiments (n=3) and represented as mean±standard error of mean (s.e.m.) and statistical analysis was performed using the two-tailed Student's t-test with a confidence level of 95% (α=0.05) with statistical significance of P<0.05. Additionally, total RNA from each well were collected and analyze by RT-PCR for expression of TuJ1, MAP2, TH, GRK2, EN1, DAT, AADC, PAX2, NURR1, PITX3 and LMX1B from hPSC-NSCs (Table 2). […] Analysis of the ELISA data indicated the top small molecule neurite inducers produced higher levels of dopamine than control non-treated cells (1.5 ng/mL). […] The percentages of TH positive cells produced by chemical treatment with Kenpaullone (33%), Guggulsterone (35%), Kynurenic Acid (19%), Immedthridine Dihydrobromide (21%), and Dimaprit Dihydrochloride (18%) were higher than 15% of TH positive cells obtained from hPSC-NSCs differentiated for ≥1 month using a standard dopaminergic differentiation medium (BDNF 20 ng/mL, GDNF 20 ng/mL, cAMP 200 μM, Abscorbic Acid 200 μM, TGFβ3 2 ng/mL and DAPT)."}, "hPSC-NSCs [2]": {"system": "hPSC-NSCs", "experiment": "RT-PCR expression of dopamine neuron genes in hPSC-NSCs treated with small molecule hits", "details": "Homo sapiens, Neuron, 336 h, hPSC-NSCs primed 7 days with Purmorphamine and FGF8, small molecule 2.5 μM for two weeks", "procedure,_shortened": "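hPSC-NSCs pre-patterned 7 days with Purmorphamine (2 μM) plus FGF8 (100 ng/mL) in NB medium, then treated with compounds at 2.5 μM final for two weeks. Total RNA reverse-transcribed; SYBR Green qPCR for dopaminergic/neuronal markers, relative quantification against a standard curve, normalized to PPIG; mean±s.e.m.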"}, "hPSC-derived DA neurons": {"system": "hPSC-derived DA neurons", "experiment": "Microelectrode array (MEA) recordings of GS-treated neurons", "details": "day 95 of differentiation, 2.5 μM guggulsterone", "procedure": "Extracellular voltage recordings from cultured hPSC-derived DA neurons were made on day 95 of differentiation in NB medium [NeuroBasal medium, 1× GlutaMAX, 1× N2/B27 Supplement (Invitrogen)] supplemented with 2.5 μM guggulsterone at 37° C. using a Muse microelectrode array (MEA) system (Axion Biosystems). The surface of the MEA dishes contained an 8×8 grid (64 electrodes total) of 30 μm diameter round extracellular electrodes composed of nanoporous platinum, with 200 μm inter-polar spacing.\nMEA dishes were sterilized by rinsing 3 times in sterile deionized water, once in 70% ethanol and once in 100% ethanol. Dishes were then capped and inverted in a covered petri dish, and baked at 50° C. for 4-5 hr. A polyethyleneimine (PEI) base coating was deposited by adding […] of filtered (0.22 μm filter) 0.1% PEI in sodium borate buffer (15 mM; pH 8.4) to each dish and incubating at room temperature for 1 hr. Immediately following aspiration of the PEI solution, dishes were washed 4× with 1 ml deionized water, and air-dried overnight in a tissue culture hood. […]\nVoltage data were sampled simultaneously on all electrodes at 12.5 kHz with a hardware filter bandwidth of 200-5000 Hz, and saved to computer with AxIS software (Axion Biosystems). […] For spike raster plots and inter-spike interval histograms, time-stamps of detected spikes were exported to Neuroexplorer (NEX Technologies). […]"}}, "note": "Read-outs that look alike come from different tables or passages of the source.", "data": [{"smiles": "C/C=C1\\C(=O)C[C@H]2[C@@H]3CCC4=CC(=O)CC[C@]4(C)[C@H]3CC[C@]12C", "note": "[Guggulsterone]", "values": [{"measurement": "percentage of TH positive cells", "setting": "hPSC-NSCs [1]", "result": 35, "unit": "%"}, {"measurement": "fold induction at 2.5 µM", "setting": "hPSC-NSCs [2]; read-out: DDC (AADC) expression by RT-PCR", "result": 9.82}, {"measurement": "fold induction at 2.5 µM", "setting": "hPSC-NSCs [2]; read-out: EN1 expression by RT-PCR", "result": 10}, {"measurement": "fold induction at 2.5 µM", "setting": "hPSC-NSCs [2]; read-out: KCNJ6 expression by RT-PCR", "result": 0.01}, {"measurement": "fold induction at 2.5 µM", "setting": "hPSC-NSCs [2]; read-out: LMX1B expression by RT-PCR", "result": 6.45}, {"measurement": "fold induction at 2.5 µM", "setting": "hPSC-NSCs [2]; read-out: MAP2 expression by RT-PCR", "result": 9.05}, {"measurement": "fold induction at 2.5 µM", "setting": "hPSC-NSCs [2]; read-out: NR4A2 (NURR1) expression by RT-PCR", "result": 0.53}, {"measurement": "fold induction at 2.5 µM", "setting": "hPSC-NSCs [2]; read-out: PITX3 expression by RT-PCR", "result": 0.48}, {"measurement": "fold induction at 2.5 µM", "setting": "hPSC-NSCs [2]; read-out: Pax2 expression by RT-PCR", "result": 0.03}, {"measurement": "fold induction at 2.5 µM", "setting": "hPSC-NSCs [2]; read-out: SLC6A3 (DAT) expression by RT-PCR", "result": 1.03}, {"measurement": "fold induction at 2.5 µM", "setting": "hPSC-NSCs [2]; read-out: TH1 expression by RT-PCR", "result": 10.6}, {"measurement": "fold induction at 2.5 µM", "setting": "hPSC-NSCs [2]; read-out: Tubb3 expression by RT-PCR", "result": 6.83}, {"measurement": "fraction of the 64 total MEA electrodes showing moderate activity (>5 spikes/min)", "setting": "hPSC-derived DA neurons", "result": "Approximately one third"}]}]}
